# What was measured:
# [1] = target: T1, CXCR4 12G5 epitope of AML cells (Homo sapiens, UniProt P61073); assay: Blocking of the CXCR4 12G5 epitope of AML cells; format: binding
# T1 construct: endogenous in cells
# Text: (§1) Experimental data support the efficiency of the claimed peptide derivatives against the diseases mentioned above. At the example of JM #21 (SEQ ID NO.: 23) it could be shown that the peptides counteract growth and migration in vitro and in vivo of Acute Myeloid Leukemia (AML) cells as well as primary patient material and Waldenström's Macroglobulinemia (WM) cells harboring different WHIM-like CXCR4 mutations. This was accompanied by intrinsic changes suppressing oncogenic MAP kinase signaling of AML and WM cells.
# [2] = Stability assay in human S9 liver fractions; conditions: 2 hours, with cofactors
# Description: Further, the stability of peptides in human S9 liver fractions (in the presence of cofactors) was tested (FIG. 12). […] To simulate and predict hepatic metabolic clearance, peptides were added to human S9 liver fractions. […] For each peptide, three independent experiments were performed.
# Stability assay in human S9 liver fractions. Pooled human liver S9 fractions were obtained from Thermo Fisher Scientific at a total protein concentration of 20 mg/ml. Fractions were stored in 25 μl aliquots at −80° C. For stability experiments, they were diluted to a final concentration of 0.5 mg/ml in Tris buffer. Cofactors (or buffer) were added immediately before start of the experiment (NADPH: 1 mM, UDPGA: 0.5 mM, GSH: 2.5 mM, PAPS: 0.05 mg/ml, Sigma Aldrich). The reaction was started by adding peptides or compounds at a concentration of 20 μM to the mixture and gentle agitation at 37° C. Determination of enzymatic stability was performed as described for plasma.
# WM cells = assay: Migration of WM cells along a CXCL12 gradient; format: cell-based; conditions: with or without S338X mutation
# Text: as §1
# CXCR4 = target: T2, CXCR4 (Homo sapiens, UniProt P61073); assay: Antibody competition assay (12G5-assay) on SupT1 cells; format: binding
# T2 construct: endogenous in cells; host or cells: SupT1 cells
# T2 sequence (P61073 whole entry): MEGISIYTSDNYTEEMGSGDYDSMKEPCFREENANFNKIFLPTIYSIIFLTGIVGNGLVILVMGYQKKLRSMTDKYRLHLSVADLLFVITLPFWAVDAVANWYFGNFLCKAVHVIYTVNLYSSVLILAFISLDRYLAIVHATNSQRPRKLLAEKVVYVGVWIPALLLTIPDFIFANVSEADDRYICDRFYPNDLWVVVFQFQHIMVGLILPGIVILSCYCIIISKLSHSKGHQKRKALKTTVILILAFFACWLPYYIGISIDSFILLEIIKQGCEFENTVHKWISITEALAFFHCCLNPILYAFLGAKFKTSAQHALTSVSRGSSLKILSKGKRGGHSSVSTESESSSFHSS
# Description: Second, the activity was tested by an antibody competition assay (FIG. 2). Values determined by the competition assay represent the potency of a compound to compete with an antibody that specifically binds to the binding pocket (ECL2) of CXCR4. […] To the right of the diagrams, an assignment of the curves to the tested peptides is explained. […] Three independent experiments were carried out for each peptide in each assay. The error bars refer to the standard deviation.
# Antibody competition assay. Competition of compounds with antibody binding was performed on SupT1 cells. For that cells were washed in PBS containing 1% FCS and 50,000 cells were then seeded per well in a 96 V-well plate. Buffer was removed and plates were precooled at 4° C. Compounds were diluted in PBS and antibody (clone 12G5, APC labelled) was diluted in PBS containing 1% FCS. The antibody was used at a concentration closed to its determined Kd. 15 μl compounds were then added to the cells and 15 μl antibody immediately afterwards. Plates were incubated at 4° C. in the dark for 2 hours. Afterwards cells were washed twice with PBS containing 1% FCS and fixed with 2% PFA. Antibody binding was analyzed by flow cytometry (FACS CytoFLEX; Beckman Coulter®).
# [3] = test system: CXCL12-induced ERK phosphorylation of AML cells; assay: CXCL12-induced ERK phosphorylation of AML cells; format: cell-based
# Text: as §1
# AML cells = assay: Migration of AML cells along a CXCL12 gradient; format: cell-based
# Text: as §1
# [4] = test system: CXCL12 induced migration of T-cells; assay: Migration assay (transwell, Jurkat cells); format: cell-based
# [5] = test system: CXCL12-induced ERK signaling; assay: ERK/AKT signaling assay in SupT1 cells: ERK phosphorylation; format: cell-based; conditions: 1 μM
# Procedure, shortened: (§2)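 SupT1 cells in 1% FCS medium preincubated 15 min at 37 °C with compound, then stimulated 2 min with CXCL12 (100 ng/ml final). PFA-fixed, methanol-permeabilized cells stained for phospho-ERK1/2 (Tyr204/Tyr187) or phospho-AKT (Ser473) and read by flow cytometry; two or three independent experiments in triplicate.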
# [6] = test system: CXCR4-tropic X4-HIV-1 (NL4-3); format: cell-based; conditions: compared to EPI-X4
# [7] = test system: CXCR4 12G5 epitope of WM cells; assay: Blocking of the CXCR4 12G5 epitope of WM cells; format: binding; conditions: with or without CXCR4 mutations
# Text: as §1
# [8] = test system: CXCL12-induced ERK phosphorylation of CXCR4 mutant WM cells; assay: CXCL12-induced ERK phosphorylation of CXCR4 mutant WM cells; format: cell-based
# Text: as §1
# [9] = test system: CXCL12-induced AKT signaling; assay: ERK/AKT signaling assay in SupT1 cells: AKT phosphorylation; format: cell-based
# Procedure, shortened: as §2
# CD34+ normal cells = assay: Engraftment of CD34+ normal cells; conditions: in vivo
# Text: as §1
# T1 sequence (P61073 whole entry): as above
structure (smiles),measurement,setting,value
CC[C@H](C)[C@H](N)C(=O)N[C@@H](CC(C)C)C(=O)N[C@@H](CCCNC(=N)N)C(=O)N[C@@H](Cc1c[nH]c2ccccc12)C(=O)N[C@@H](CO)C(=O)N[C@@H](CCCNC(=N)N)C(=O)N[C@@H](CCCCN)C(=O)N[C@@H](CC(C)C)C(=O)N1CCC[C@H]1C(=O)N[C@@H](CS)C(=O)N[C@H](C(=O)N[C@@H](CO)C(=O)O)C(C)C [JM #21],blocking of CXCR4 12G5 epitope of AML cells,[1],efficiently blocked the CXCR4 12G5 epitope of AML cells in a dose dependent manner
same,remaining activity in human S9 liver fractions after 2 hours,[2],readily inactivated by liver enzymes
same,migration of WM cells along a CXCL12 gradient,WM cells,impaired migration of WM cells with or without S338X mutation along a CXCL12 gradient
same,antibody competition / binding to CXCR4 (in words),CXCR4,more effective antibody competition
same,CXCL12-induced ERK phosphorylation of AML cells,[3],reduced CXCL12-induced ERK phosphorylation of AML cells
same,migration of AML cells along a CXCL12 gradient,AML cells,inhibited migration of AML cells along a CXCL12 gradient
same,inhibition of CXCL12 induced migration of T-cells (in words),[4],more effective than WSC02
same,reduction of CXCL12-induced ERK signaling,[5],60%
same,fold more effective inhibition of X4-HIV-1 than EPI-X4,[6],~100 fold
same,blocking of CXCR4 12G5 epitope of WM cells,[7],blocked the CXCR4 12G5 epitope of WM cells in presence or absence of different CXCR4 mutations in a dose dependent manner
same,CXCL12-induced ERK phosphorylation of CXCR4 mutant WM cells,[8],reduced CXCL12-induced ERK phosphorylation of CXCR4 mutant WM cells in a dose-dependent manner
same,reduction of CXCL12-induced AKT signaling,[9]; 1 μM,about 50%
same,reduction of CXCL12-induced AKT signaling,[9]; 10 μM,about 85%
same,blocking of CXCL12 induced signaling (in words),[9]; AKT and ERK,blocked signaling more effectively than WSC02
same,fold effectiveness in blocking AKT signaling relative to WSC02,[9]; compared to WSC02,about 10 fold
same,engraftment potential of CD34+ normal cells,CD34+ normal cells,no inhibiting effect on the engraftment potential of CD34+ normal cells
